The target of one data set is T1, ABCG2 (Homo sapiens, UniProt Q9UNQ0).
T1 sequence (Q9UNQ0 1-655): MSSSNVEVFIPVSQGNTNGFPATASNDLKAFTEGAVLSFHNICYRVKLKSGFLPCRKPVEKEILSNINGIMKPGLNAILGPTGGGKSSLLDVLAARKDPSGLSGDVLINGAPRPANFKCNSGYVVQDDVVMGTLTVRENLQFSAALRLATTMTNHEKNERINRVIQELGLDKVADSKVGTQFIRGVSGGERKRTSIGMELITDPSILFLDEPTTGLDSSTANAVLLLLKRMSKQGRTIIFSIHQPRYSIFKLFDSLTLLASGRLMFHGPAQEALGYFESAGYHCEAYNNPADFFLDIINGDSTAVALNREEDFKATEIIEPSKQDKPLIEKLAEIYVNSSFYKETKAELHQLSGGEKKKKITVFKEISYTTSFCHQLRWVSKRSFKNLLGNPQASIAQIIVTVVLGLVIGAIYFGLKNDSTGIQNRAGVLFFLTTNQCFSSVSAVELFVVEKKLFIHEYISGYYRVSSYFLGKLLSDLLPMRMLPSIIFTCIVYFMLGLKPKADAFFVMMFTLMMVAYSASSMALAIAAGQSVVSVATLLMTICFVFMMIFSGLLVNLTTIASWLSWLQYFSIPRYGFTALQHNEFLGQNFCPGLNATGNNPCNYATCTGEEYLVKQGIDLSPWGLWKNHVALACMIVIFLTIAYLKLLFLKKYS
The experiment in a line: ABCG2 vesicular transport (lucifer yellow), HEK293 inverted membrane vesicles. The conditions noted are these: up to 200 μM.

Another data set concerns the target T2, OATP2B1 (Homo sapiens, UniProt O94956).
T2 construct: expressed in transfected cells; host or cells: A431
T2 sequence (O94956 1-709): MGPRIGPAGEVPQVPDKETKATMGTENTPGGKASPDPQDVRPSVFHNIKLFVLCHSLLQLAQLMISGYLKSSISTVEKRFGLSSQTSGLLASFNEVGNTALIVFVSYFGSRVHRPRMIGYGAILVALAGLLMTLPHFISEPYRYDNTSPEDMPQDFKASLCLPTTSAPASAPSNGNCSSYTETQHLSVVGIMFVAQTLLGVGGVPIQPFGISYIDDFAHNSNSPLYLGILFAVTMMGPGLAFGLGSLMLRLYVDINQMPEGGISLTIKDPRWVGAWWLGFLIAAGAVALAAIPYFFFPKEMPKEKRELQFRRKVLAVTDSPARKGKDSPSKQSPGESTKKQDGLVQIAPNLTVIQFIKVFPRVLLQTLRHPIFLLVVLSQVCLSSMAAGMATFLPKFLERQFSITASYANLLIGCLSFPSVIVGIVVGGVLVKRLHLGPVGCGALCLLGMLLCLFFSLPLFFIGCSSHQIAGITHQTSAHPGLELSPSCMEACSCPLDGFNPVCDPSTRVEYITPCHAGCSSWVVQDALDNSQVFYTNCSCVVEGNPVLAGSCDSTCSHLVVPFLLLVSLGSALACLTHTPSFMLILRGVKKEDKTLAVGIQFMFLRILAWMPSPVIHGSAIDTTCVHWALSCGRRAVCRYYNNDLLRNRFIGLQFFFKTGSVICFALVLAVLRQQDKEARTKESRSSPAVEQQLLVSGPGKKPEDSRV
The experiment in a line: OATP2B1 uptake assay (pyranine) in overexpressing A431 cells. The class given is cell-based. Particulars: for IC50: pyranine substrate, A431 cells, pH 5.5, read-out: estimated IC50, OATP2B1. On the procedure: To study the function of OATPs, we used A431 cells overexpressing OATP1A2, OATP1B1, OATP1B3, or OATP2B1 and mock-transfected A431 cells, generated as previously described, as controls. […] Briefly, OATP-overexpressing A431 cells and mock-transfected A431 cells were seeded on 96-well plates (8 × 10^4 cells/well).

The next data set concerns the target ABCB1 (Homo sapiens, UniProt P08183). Put plainly: ABCB1 vesicular transport (NMQ), HEK293 inverted membrane vesicles. The conditions noted are these: for effect on ABCB1 NMQ vesicular transport: up to 200 μM.
The next data set concerns the target T3, OATP1B1 (Homo sapiens, UniProt Q9Y6L6).
T3 sequence (Q9Y6L6 1-691): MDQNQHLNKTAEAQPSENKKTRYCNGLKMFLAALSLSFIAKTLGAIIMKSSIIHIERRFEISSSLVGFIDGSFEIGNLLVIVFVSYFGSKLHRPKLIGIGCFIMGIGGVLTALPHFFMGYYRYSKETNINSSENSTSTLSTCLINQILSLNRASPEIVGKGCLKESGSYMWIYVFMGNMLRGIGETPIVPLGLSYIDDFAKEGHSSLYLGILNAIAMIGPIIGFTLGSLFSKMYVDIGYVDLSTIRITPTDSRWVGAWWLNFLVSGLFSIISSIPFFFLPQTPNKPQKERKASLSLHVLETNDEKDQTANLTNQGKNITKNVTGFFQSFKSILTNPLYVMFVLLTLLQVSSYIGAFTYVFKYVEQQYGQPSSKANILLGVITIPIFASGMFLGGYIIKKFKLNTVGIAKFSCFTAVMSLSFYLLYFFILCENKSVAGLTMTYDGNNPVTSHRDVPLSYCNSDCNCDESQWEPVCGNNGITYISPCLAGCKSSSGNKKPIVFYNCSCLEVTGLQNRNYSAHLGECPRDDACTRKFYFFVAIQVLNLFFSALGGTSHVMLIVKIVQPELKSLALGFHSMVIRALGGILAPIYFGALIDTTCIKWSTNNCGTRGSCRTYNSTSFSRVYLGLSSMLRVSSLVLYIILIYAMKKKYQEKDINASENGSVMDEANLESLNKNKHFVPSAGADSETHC
Put plainly: OATP1B1 uptake assay (pyranine) in overexpressing A431 cells.

Entries after “also recorded” stand apart in the source; their conditions may differ. Where two headings read alike, the source gives them in different places.

ABCB1, sequence (P08183 whole entry): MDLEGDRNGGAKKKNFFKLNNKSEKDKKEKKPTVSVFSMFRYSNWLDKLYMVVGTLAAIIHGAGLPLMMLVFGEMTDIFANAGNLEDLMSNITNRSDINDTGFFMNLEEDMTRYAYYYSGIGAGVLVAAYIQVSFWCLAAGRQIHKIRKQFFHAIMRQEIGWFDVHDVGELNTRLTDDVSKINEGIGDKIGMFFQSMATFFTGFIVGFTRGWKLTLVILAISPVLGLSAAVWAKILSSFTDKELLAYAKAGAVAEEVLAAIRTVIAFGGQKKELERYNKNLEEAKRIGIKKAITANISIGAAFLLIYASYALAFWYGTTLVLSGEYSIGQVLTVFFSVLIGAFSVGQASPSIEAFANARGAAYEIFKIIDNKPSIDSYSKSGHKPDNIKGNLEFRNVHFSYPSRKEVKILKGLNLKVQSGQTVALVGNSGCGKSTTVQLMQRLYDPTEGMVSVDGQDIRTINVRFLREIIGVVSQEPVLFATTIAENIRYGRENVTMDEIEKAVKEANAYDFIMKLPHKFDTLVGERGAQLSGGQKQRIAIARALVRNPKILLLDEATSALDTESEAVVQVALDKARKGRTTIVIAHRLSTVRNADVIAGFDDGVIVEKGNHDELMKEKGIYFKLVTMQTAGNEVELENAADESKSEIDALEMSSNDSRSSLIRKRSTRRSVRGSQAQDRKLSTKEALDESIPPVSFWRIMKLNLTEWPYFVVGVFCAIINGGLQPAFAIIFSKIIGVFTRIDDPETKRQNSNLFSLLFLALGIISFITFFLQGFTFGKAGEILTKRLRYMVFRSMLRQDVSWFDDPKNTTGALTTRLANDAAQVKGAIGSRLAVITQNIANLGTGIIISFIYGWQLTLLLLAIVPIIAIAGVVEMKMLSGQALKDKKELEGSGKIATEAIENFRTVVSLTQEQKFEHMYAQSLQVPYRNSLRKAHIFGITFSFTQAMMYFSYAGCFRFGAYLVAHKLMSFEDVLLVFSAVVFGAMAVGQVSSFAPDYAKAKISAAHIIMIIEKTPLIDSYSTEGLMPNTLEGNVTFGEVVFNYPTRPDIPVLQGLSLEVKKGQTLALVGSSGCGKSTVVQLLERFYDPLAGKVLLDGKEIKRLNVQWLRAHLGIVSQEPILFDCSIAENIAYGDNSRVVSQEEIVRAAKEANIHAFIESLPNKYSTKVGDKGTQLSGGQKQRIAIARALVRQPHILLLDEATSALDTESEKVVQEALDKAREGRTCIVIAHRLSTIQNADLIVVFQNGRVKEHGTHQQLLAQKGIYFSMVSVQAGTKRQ
Protocol for ABCG2: ABCB1, ABCG2, and ABCC4 HEK293 membrane vesicles were prepared by Solvo Biotechnology, Budapest. The total protein content of membrane vesicle preparations was determined using the Lowry quantitation method and 30 µg (ABCG2) or 50 µg (ABCB1 and ABCC4) total protein/sample was used for the measurements. For ABCG2 vesicular transport, the fluorescent probe Lucifer yellow (LY) was present in the mixture at 5 μM final concentration. […] Uptake of the probe substrates into the inverted membrane vesicles was measured at 37 °C (ABCG2, ABCB1) or at 32 °C (ABCC4) for 10 min (ABCG2), 5 min (ABCB1), or 1.5 min (ABCC4) in the presence or absence of 4 mM Mg-ATP, in 75 μL final volume of the media (0.04 M MOPS-TRIS pH 7.2, 56 mM KCl, 6 mM MgCl2). The known reference inhibitors of the transporters (1 µM Ko143 for ABCG2, 50 µM Verapamil for ABCB1, and 150 µM MK571 for ABCC4) served as controls. Each test compound was dissolved in DMSO and a 0.75 µL volume was added to the samples. A DMSO solvent control was used in each experiment. The transport was stopped by the addition of ice-cold wash buffer to the samples, then rapidly filtered (MSFBN6B, Millipore, Burlington, MA, USA). Filters were washed with ice-cold wash buffer (0.04 M MOPS-TRIS pH 7.2, 70 mM KCl). For LY, vesicles retained on the filters were dissolved in 10% SDS and transferred into a 96-well microplate. After the addition of DMSO as a stabilizer, fluorescence was measured using a plate reader at 427/535 nm (Victor X3 Enspire Perkin-Elmer, Waltham, MA, USA). When radiolabeled compounds were used as substrates, radioactivity retained on the filter was measured by liquid scintillation counting in Optiphase HiSafe liquid (Perkin Elmer MicroBeta2 liquid scintillation counter, Perkin Elmer, Waltham, MA, USA). ATP-dependent transport was calculated by subtracting the values obtained in the presence of AMP from those obtained in the presence of ATP.

One may read the IC50 as the point on the concentration scale where inhibition reaches its midpoint. With `O=c1nc(NO)ccn1[C@@H]1O[C@H](CO)[C@@H](O)[C@H]1O` [EIDD-1931], the “effect on ABCG2 lucifer yellow vesicular transport” value at ABCG2 is “neither the function of ABCB1 nor that of ABCG2 was altered”. Besides, the “maximum inhibition of OATP2B1” value at OATP2B1 (at 200 μM, pyranine) is 20–40%. The IC50 on OATP2B1 was more than 200 µM; at OATP1B1 (read-out: estimated IC50, OATP1B1, pyranine substrate, A431 cells), more than 200 µM. The “effect on ABCB1 NMQ vesicular transport” value on ABCB1 is “neither the function of ABCB1 nor that of ABCG2 was altered”. Also, the “maximum inhibition of OATP1B1” value on OATP1B1 (at 200 μM, pyranine) was 20–40%.
What is called inhibition is how much of the control response was suppressed. Take `CC(C)C(=O)OC[C@H]1O[C@@H](n2ccc(NO)nc2=O)[C@H](O)[C@@H]1O` [EIDD-2801, Molnupiravir]: on ABCG2, the “effect on ABCG2 lucifer yellow vesicular transport” value is reported as “neither the function of ABCB1 nor that of ABCG2 was altered”. Moreover, the inhibition at 10 min, 200 µM was 20 to 40% at OATP2B1 (human, A431 cells overexpressing OATP2B1, pH 5.5, probe pyranine (20 μM), at 200 μM, pyranine, read-out: maximum inhibition of OATP2B1) and 20 to 40% at OATP1B1 (human, A431 cells overexpressing OATP1B1, pH 7.4, probe pyranine (20 μM)). In addition, the IC50 on OATP2B1 and against OATP1B1 was more than 200 µM in each case. The “effect on ABCB1 NMQ vesicular transport” value on ABCB1 was “neither the function of ABCB1 nor that of ABCG2 was altered”.
As for `CC(C)(C)[C@H](NC(=O)C(F)(F)F)C(=O)N1C[C@H]2[C@@H]([C@H]1C(=O)N[C@H](C#N)C[C@@H]1CCNC1=O)C2(C)C` [Nirmatrelvir], at ABCG2, the “effect on ABCG2 lucifer yellow vesicular transport” value is recorded as “not affected; also recorded: negligible effect”. Moreover, the “inhibition of OATP2B1 by Nirmatrelvir alone” value against OATP2B1 (at 20 μM) is “only a minor inhibitory effect”. Further, the “additional effect of Nirmatrelvir on ABCB1 inhibition by Ritonavir” value on ABCB1 (NIR in combination with RIT) is “no additional effect”. The “effect on ABCB1 NMQ vesicular transport” value on ABCB1 was “moderate inhibitory effect; also recorded: only a weak inhibitory effect”. Also, the “inhibition of OATP1B1 by Nirmatrelvir alone” value against OATP1B1 (at 20 μM) is given as “only a minor inhibitory effect”.

Values taken from article PMC10379611 (International Journal of Molecular Sciences, 2023).
